From paper PMC4774911, “Biochemical Screening of Five Protein Kinases from Plasmodium falciparum against 14,000 Cell-Active Compounds” (PLoS ONE, 2016)

Experiments:
DD2 = test system: DD2; parameters: method as in F.J. Gamo et al., Nature 2010; conditions: downloaded from ChEMBL, ref F.J. Gamo et al., Nature 2010; cited from earlier work
P. falciparum 3D7 cells = conditions: 3D7; downloaded from ChEMBL; ref F.J. Gamo et al., Nature 2010; cited from earlier work
3D7 PFLDH = test system: 3D7 PFLDH; parameters: method as in F.J. Gamo et al., Nature 2010; concentration or dose not given beside the values; conditions: downloaded from ChEMBL, ref F.J. Gamo et al., Nature 2010; cited from earlier work
HepG2 cells = conditions: HepG2; downloaded from ChEMBL; ref F.J. Gamo et al., Nature 2010; cited from earlier work
[1] = target: T1, Plasmodium falciparum calcium-dependent protein kinase 1 (CDPK1) (Plasmodium falciparum, UniProt P62344); assay: CDPK1 Kinase-Glo ATP-consumption screen and dose-response; format: biochemical; conditions: hits below 1 uM; read-out: CDPK1 IC50
T1 construct: 6-Histidine (N); made in house
Procedure: Biochemical assays were performed in white 384-well plates (Nunc). Liquid transfers were done manually with 8-channel pipets. Compounds were initially tested in a single-point screen (final concentration 1 μM). […] The catalytic activity of each kinase was considered proportional to ATP consumed, as determined from measurements of residual [ATP] with the luciferase-based reagent Kinase-Glo (Promega) following incubation. Luminescence (proportional to residual [ATP]) was measured on the plate readers FLx800 (BioTek Instruments, Winooski, VT, USA) and MicroBeta^2 (PerkinElmer, Waltham, MA, USA). Incubation times were chosen to ensure near-complete ATP depletion in the absence of inhibition, thus maximizing the difference in signal between inhibited and uninhibited wells.
40 μM Syntide-2 was used as a substrate; BKI-1 [14] was used as a control inhibitor, while reaction mixtures lacking Syntide-2 were included as an additional negative control. Incubation time was 90 minutes. Reactions were terminated by adding excess EGTA (5 mM), which sequesters Ca^2+ and halts calcium-dependent kinase activity.

T1 sequence (P62344 whole entry): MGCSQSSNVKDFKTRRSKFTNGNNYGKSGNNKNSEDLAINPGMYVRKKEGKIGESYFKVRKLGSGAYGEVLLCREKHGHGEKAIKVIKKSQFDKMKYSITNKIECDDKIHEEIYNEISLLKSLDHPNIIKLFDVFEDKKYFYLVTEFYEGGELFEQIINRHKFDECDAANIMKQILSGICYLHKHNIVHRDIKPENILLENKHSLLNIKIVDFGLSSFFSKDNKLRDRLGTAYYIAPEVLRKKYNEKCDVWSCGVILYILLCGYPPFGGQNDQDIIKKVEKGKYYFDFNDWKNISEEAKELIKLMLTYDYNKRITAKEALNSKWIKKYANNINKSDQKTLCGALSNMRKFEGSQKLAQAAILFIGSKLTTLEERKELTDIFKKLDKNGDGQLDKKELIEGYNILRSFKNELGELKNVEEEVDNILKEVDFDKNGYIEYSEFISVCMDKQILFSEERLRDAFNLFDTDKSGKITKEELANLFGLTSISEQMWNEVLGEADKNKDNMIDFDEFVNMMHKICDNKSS

Compound	PCT_INHB_DD2 (DD2)	PCT_IHB_3D7 (P. falciparum 3D7 cells)	pXC50_3D7 (P. falciparum 3D7 cells)	PCT_INHIB_3D7_PFLDH (3D7 PFLDH)	PCT_INHIB_HEPG2 (HepG2 cells)	IC50 [1]
CNC(=O)c1ccccc1Nc1nc(Nc2ccc(C(=O)O)cc2)ncc1Cl.Cl [TCMDC-133803]	92%	92%	6.022	0%	60%	246 nM
CCn1c(-c2nonc2N)nc2c(-c3ccc(CO)o3)ncc(OCCCN)c21.O=C(O)C(F)(F)F [TCMDC-133807]	97%	93%	5.866	0%	0%	51 nM
CN1CCN(c2ccc(Nc3ncc(Cl)c(Nc4cccnc4C(N)=O)n3)cc2)CC1.Cl [TCMDC-134164]	97%	95%	6.816	0%	99%	12 nM
NC(=O)c1ccccc1Nc1nc(Nc2cc[nH]n2)ncc1Cl [TCMDC-134169]	93%	96%	6.019	0%	67%	186 nM
O=C(O)C(F)(F)F.O=c1[nH]ccc2nc(N[C@@H]3CCNC3)nc(Nc3ccc4c(c3)S(=O)(=O)CC4)c12 [TCMDC-135044]	99%	100%	6.4233	0%	0%	235 nM
CCOC(=O)c1cccc(NC(=O)Nc2cccc(-c3ncc(OCCCN)c4c3nc(-c3nonc3N)n4CC)c2)c1.O=C(O)C(F)(F)F [TCMDC-136205]	98%	100%	6.0485	2%	16%	294 nM
Cl.c1ccc(Oc2ccc(Nc3ccnc(Nc4ccc5cn[nH]c5c4)n3)cc2)cc1 [TCMDC-138574]	33%	94%	6.135	0%	6%	765 nM
Cl.N#CCc1ccc(Nc2nccc(Nc3ccc(Oc4ccccc4)cc3)n2)cc1 [TCMDC-138577]	47%	98%	6.094	6%	0%	798 nM
Cl.c1ccc(Oc2ccc(Nc3ccnc(Nc4ccc(OCCN5CCCCC5)cc4)n3)cc2)cc1 [TCMDC-138583]	66%	97%	6.219	0%	23%	701 nM
CC(=O)Nc1cccc(Nc2nccc(Nc3ccc(Oc4ccccc4)cc3)n2)c1.Cl [TCMDC-138590]	99%	100%	6.128	0%	15%	425 nM
O=C(NCCN1CCCC1)c1cccc(Nc2nccc(Nc3ccc(Oc4ccccc4)cc3)n2)c1 [TCMDC-138602]	18%	100%	6.184	0%	33%	213 nM
O=C(NCCN1CCCCC1)c1cccc(Nc2nccc(Nc3ccc(Oc4ccccc4)cc3)n2)c1 [TCMDC-138603]	86%	99%	6.563	0%	50%	250 nM
O=C(NCCCN1CCOCC1)c1cccc(Nc2nccc(Nc3ccc(Oc4ccccc4)cc3)n2)c1 [TCMDC-138604]	22%	98%	6.116	0%	34%	180 nM
O=C(NCCCN1CCCCC1)c1cccc(Nc2nccc(Nc3ccc(Oc4ccccc4)cc3)n2)c1 [TCMDC-138605]	12%	96%	6.086	2%	47%	243 nM
CCCN1CCN(CCNC(=O)c2cccc(Nc3nccc(Nc4ccc(Oc5ccccc5)cc4)n3)c2)CC1 [TCMDC-138606]	96%	99%	6.622	0%	56%	336 nM
O=C(NCCN1CCC(c2ccncc2)CC1)c1cccc(Nc2nccc(Nc3ccc(Oc4ccccc4)cc3)n2)c1 [TCMDC-138607]	91%	100%	6.773	0%	60%	220 nM
O=C(NCCN1CCCCC1)c1ccc(Nc2nccc(Nc3ccc(Oc4ccccc4)cc3)n2)cc1 [TCMDC-138608]	91%	100%	6.257	0%	58%	103 nM
O=C(NCCCN1CCCCC1)c1ccc(Nc2nccc(Nc3ccc(Oc4ccccc4)cc3)n2)cc1 [TCMDC-138609]	61%	100%	6.204	0%	30%	94 nM
O=C(NCCN1CCC(c2ccncc2)CC1)c1ccc(Nc2nccc(Nc3ccc(Oc4ccccc4)cc3)n2)cc1 [TCMDC-138610]	90%	100%	6.14	1%	17%	135 nM
CN1CCN(Cc2cccc(Nc3nccc(Nc4ccc(Oc5ccccc5)cc4)n3)c2)CC1 [TCMDC-138614]	80%	97%	6.529	2%	30%	801 nM
CN1CCN(CCCNCc2cccc(Nc3nccc(Nc4ccc(Oc5ccccc5)cc4)n3)c2)CC1 [TCMDC-138616]	80%	100%	6.117	0%	97%	261 nM
CN1CCN(CCCNCc2ccc(Nc3nccc(Nc4ccc(Oc5ccccc5)cc4)n3)cc2)CC1 [TCMDC-138621]	9%	100%	6.197	0%	17%	139 nM
Cc1ccc(Nc2nc3cc(N(C)c4ccnc(Nc5cccc(CCS(C)(=O)=O)c5)n4)ccc3n2C)cc1.O=C(O)C(F)(F)F [TCMDC-138853]	73%	99%	6.469	4%	78%	160 nM
Cn1c(Nc2cc(C(C)(C)C)on2)nc2cc(Nc3ccnc(Nc4cccc(CS(C)(=O)=O)c4)n3)ccc21 [TCMDC-141893]	94%	99%	6.243	0%	63%	114 nM
